Results taken from article PMC12557367, ““Precision on Two Wheels”–Structural Refinement of ^64Cu- and ^68Ga-Labeled Bicyclic Peptides Targeting Nectin‑4 for Improved Tumor Imaging: From Preclinical Development to First-in-Human Application” (Journal of Medicinal Chemistry, 2025).

How the values were obtained:
[1] = molecular target: T1, recombinant human nectin-4 (Homo sapiens, UniProt Q96NY8); assay: Fluorescence anisotropy (FA) direct binding of fluorescent probes; details: 1 nM probe
T1 construct: close to the value determined for the complete extracellular domain of nectin-4 (0.94 nM); purchased R&D Systems 2659-N4
T1 sequence (Q96NY8 32-349 limits assumed): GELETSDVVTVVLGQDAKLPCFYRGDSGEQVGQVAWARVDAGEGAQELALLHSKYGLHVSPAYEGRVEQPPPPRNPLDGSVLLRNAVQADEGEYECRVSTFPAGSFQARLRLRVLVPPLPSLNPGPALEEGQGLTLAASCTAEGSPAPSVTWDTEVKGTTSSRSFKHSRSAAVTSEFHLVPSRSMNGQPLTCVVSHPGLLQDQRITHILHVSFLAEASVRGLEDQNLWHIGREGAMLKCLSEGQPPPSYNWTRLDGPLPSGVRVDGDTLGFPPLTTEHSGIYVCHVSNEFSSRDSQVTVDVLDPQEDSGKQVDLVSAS
Source text: For characterizing the binding affinity of the bicyclic peptides toward nectin-4, we envisaged a fluorescence anisotropy-based competitive binding assay. Mudd et al. also used such an assay for the development of the bicycle drug conjugate BT8009. Herein, the peptidic scaffold of BT8009 was used as a basis for the required fluorescent nectin-4-ligand (probe) with either 6-TAMRA (1a) or 6-FAM (1b) being attached at the N-terminal Cys residue. […] In this context, the binding of the probe to nectin-4 was started by the addition of nectin-4, followed by continuous fluorescence measurements over 20 min. It is worth noting that a slight initial increase in the FA values could be observed for both probes (FA values at <300 s in Figure S1); however, this putative time-dependent association appeared to be too fast to analyze it. […]
All measurements were conducted at 37 °C over 1200 s (interval of 37 s) using a Cytation 5 multimode microplate reader (BioTek Instruments, Software Gen 5) and black 96-well microplates (BRANDplates with F-bottom wells). […] The FA (r) was calculated by Gen 5 software from the measured parallel and perpendicular fluorescence intensities (I ∥ and I ⊥, respectively) according to eq using a G factor of 0.87 (preset value). r=I∥−G×I⊥/I∥+2G×I⊥ 1 […]

HT-1376 cells = assay: Flow cytometry with fluorescent probe; assay type: cell-based, human; details: 1 µM probe, on ice 1 h; 5637 cells as negative
Description: For flow cytometry analysis, HT-1376 and 5637 cells were rinsed with PBS three times and dissociated from a flask by using 50 mM EDTA and a cell scraper. Aliquots of the cell suspension containing 1 × 10^6 cells were pelleted at 300×g for 7 min, and one pellet of each cell line was dissolved in fresh PBS + 3% BSA containing 1 μM of probe 1b. As a negative control, one HT-1376 pellet was dissolved only in PBS + 3% BSA. The cells were incubated on ice for 1 h before they were pelleted again. The staining solution was discarded, and the pellet was washed in 1 mL of PBS + 0.5% BSA + 2 mM EDTA (FACS wash buffer) and centrifuged again. The washing step was repeated a total of three times. After the last wash, the pellets were dissolved in 500 μL of FACS wash buffer and analyzed with an Attune NxT Flow Cytometer (Invitrogen). For the detection, the BL1 laser with an excitation of 488 nm and an emission filter of 530/30 nm set to a Voltage of 270 was used. The forward scatter was set to a voltage of 80 or 120, and the sideward scatter was set to 320 or 370 for HT-1376 or 5637 cells, respectively. A sample of 50 μL was analyzed at a speed of 100 μL/min, leading to a total of 35410 and 34992 analyzed events (singlets) for HT-1376 and 5637 cells, respectively.

- dynamic range (ΔFA = mA of bound probe – mA of free probe) [1]: 86 (±7) mA
SMILES: CSCC[C@@H]1NC(=O)[C@@H]2CSCCC(=O)N3CN(CN(C3)C(=O)CCSC[C@H](NC(=O)c3ccc(C(=O)O)c(-c4c5ccc(=O)cc-5oc5cc(O)ccc45)c3)C(=O)N3CCC[C@H]3C(=O)N[C@@H](Cc3cccc4ccccc34)C(=O)N[C@H](CC(=O)O)C(=O)N2)C(=O)CCSC[C@@H](C(N)=O)NC(=O)[C@H](Cc2c[nH]c3ccccc23)NC(=O)[C@@H]2C[C@@H](O)CN2C(=O)[C@@H]2CCCN2C(=O)[C@H]([C@@H](C)O)NC(=O)[C@H](CO)NC(=O)[C@H](Cc2c[nH]c3ccccc23)NC(=O)[C@H](CC(=O)O)NC(=O)[C@H](CCCCNC(=N)N)NC1=O [1b]
- binding of probe to cells (FACS) (HT-1376 cells): Nectin-4-specific binding
